Legend:
YAP = YAP phosphorylation inhibitory action in SKOV3 (HTRF); format: cell-based, human; conditions: 10 μM, 1 hr, non-treatment 100%
Procedure: Human ovarian cancer cell line SKOV3 (manufactured by DS Pharma Biomedical Co., Ltd.) was precultured using a 15% FBS-containing McCoy's 5a medium (manufactured by Sigma-Aldrich) (single layer culture). The above-mentioned cells in the logarithmic growth phase were washed with PBS. A 0.25% (w/v) trypsin-1 mmol/L ethylenediaminetetraacetic acid (EDTA) solution (manufactured by FUJIFILM Wako Pure Chemical Corporation) was added and the adherent cells were incubated at 37° C. for 3 min and detached. The above-mentioned medium was added, and the cells were centrifuged and resuspended in the same medium.
According to the method of patent document 1 (WO 2014/017513), a composition of 10% FBS-containing DMEM medium (Phenol-red free, manufactured by FUJIFILM Wako Pure Chemical Corporation) containing 0.015% (w/v) deacylated gellan gum (KELCOGEL CG-LA, manufactured by SANSHO Co., Ltd.) was prepared using FCeM-series Preparation Kit (manufactured by FUJIFILM Wako Pure Chemical Corporation). Then, various cells prepared above were suspended in the above-mentioned medium composition (3D culture conditions) added with deacylated gellan gum or a medium without the addition (2D culture conditions), and seeded on a 50 μL/well (manufactured by Corning Incorporated, a 96 well flat bottom plate, #3585, 2D culture conditions) or 25 μL/well (manufactured by Corning Incorporated, 96 well low adhesion flat bottom plate, #3474) at 100000 cells/well. The plate was allowed to stand at 37° C. in a 5% CO2 incubator, and the compound of the present invention diluted with the medium at 2 or 6 times the final concentration, DMSO, or the medium alone was added to the plate 3 hr after the seeding at 50 μL/well (2D culture conditions) or 5 μL/well (3D culture conditions) to make the final concentration of each compound 10 μM. After culture at 37° C. in a 5% CO2 incubator for 1 hr, the supernatant was aspirated, supplemented Lysis buffer (1-fold concentration, manufactured by Cisbio, YAP-total kit or YAP phospho-S27 kit) (50 μL) was added under 2D culture conditions, and supplemented Lysys buffer (4-fold concentration) (10 μL) was added to the culture supernatant under 3D conditions, and the mixture was stirred by a plate shaker for 30 min. Thereafter, the plate was centrifuged, 16 μL of the supernatant was transferred to a 384-well white plate (Corning, #4512), and each antibody solution (pYAP d2 antibody or Total-YAP d2 antibody, and pYAP Cryptate antibody or Total-YAP Cryptate antibody) included in the kit was added at 4 μL/well in total, and the mixture was allowed to stand at room temperature overnight. As a blank control, pYAP Cryptate antibody or Total-YAP Cryptate antibody alone was added to cells free of stimulation with compound and the mixture was treated in the same manner. The next day, the wavelengths at 665 nm and 615′ nm were measured in the HTRF mode of EnVision (manufactured by PerkinElmer).
The obtained signal was calculated as follows. Ratio=signal (665 nm)/signal (615 nm)×10000, ΔR=Signal(Ratio)−Background fluorescence, and the relative phosphorylated YAP amount or total YAP amount for each compound when ΔR of the compound non-addition group (non-treatment) is 100% is shown in Tables 7 and 8 (2D culture), and Tables 9 and 10 (3D culture). From the results, it was shown that the compound of the present zo invention has a YAP phosphorylation inhibitory action under both 2D and 3D culture conditions.

LATS2 = target: T1, LATS2 (Homo sapiens, UniProt Q9NRM7); assay: Kinase inhibitory activity against LATS2 (ADP quantification); format: biochemical; conditions: ATP 400 μM, read-out: kinase inhibitory rate; for inhibition at 1 µM: final concentration 1000 nM; for inhibition at 0.1 µM: final concentration 100 nM
T1 construct: purchased Carna Biosciences
T1 sequence (Q9NRM7 1-1088): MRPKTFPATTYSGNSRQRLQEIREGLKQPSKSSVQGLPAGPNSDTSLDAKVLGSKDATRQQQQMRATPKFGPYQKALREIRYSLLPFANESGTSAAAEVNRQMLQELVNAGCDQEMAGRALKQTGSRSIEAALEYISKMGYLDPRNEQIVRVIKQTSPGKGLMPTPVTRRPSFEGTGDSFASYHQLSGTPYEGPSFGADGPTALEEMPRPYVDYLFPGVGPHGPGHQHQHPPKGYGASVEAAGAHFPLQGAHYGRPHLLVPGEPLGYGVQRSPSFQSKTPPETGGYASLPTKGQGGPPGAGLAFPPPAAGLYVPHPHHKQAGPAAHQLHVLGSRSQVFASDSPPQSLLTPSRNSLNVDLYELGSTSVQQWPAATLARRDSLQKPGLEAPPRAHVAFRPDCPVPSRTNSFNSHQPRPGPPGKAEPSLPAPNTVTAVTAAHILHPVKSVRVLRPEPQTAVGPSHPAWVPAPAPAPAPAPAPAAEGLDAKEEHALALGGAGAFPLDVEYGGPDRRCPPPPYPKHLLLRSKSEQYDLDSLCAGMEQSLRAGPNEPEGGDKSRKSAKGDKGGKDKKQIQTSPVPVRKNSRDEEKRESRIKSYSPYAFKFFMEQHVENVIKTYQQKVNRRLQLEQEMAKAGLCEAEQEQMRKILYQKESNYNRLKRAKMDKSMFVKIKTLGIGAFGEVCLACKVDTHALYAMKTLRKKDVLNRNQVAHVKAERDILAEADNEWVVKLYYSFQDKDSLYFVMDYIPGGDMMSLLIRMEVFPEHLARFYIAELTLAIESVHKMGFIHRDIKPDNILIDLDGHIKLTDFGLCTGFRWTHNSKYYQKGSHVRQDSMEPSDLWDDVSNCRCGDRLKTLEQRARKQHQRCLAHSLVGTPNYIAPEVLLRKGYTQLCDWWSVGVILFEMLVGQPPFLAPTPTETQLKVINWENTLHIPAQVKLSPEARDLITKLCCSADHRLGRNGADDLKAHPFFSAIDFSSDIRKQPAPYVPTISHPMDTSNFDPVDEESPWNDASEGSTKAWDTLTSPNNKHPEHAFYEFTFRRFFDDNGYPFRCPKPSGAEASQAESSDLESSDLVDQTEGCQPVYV
Procedure: (§1) Evaluation of the inhibitory activity (calculation of kinase inhibitory rate) of the compound of the present invention against LATS1 and LATS2 (manufactured by Carna Biosciences) was performed. The activity was measured using the Kinase Assay method described below. The test concentration of the compound of the present invention was set such that the final concentration was 100 nM or 1000 nM.
(§2) As the analysis method of the data, the mean signal of the control well containing reaction components other than the compound of the present invention was set to 0% inhibition, the mean signal without enzyme addition was set to 100% inhibition, and the inhibition rate was calculated from the mean signal of 2 wells of each compound.
(§3) 2 μL of a compound of the present invention solution at 2.5-fold concentration, 1 μL of substrate at 5-fold concentration (SGKtide: NH2-CKKRNRRLSVA-COOH, manufactured by SignalChem), ATP (manufactured by Sigma-Aldrich), MgCl2 (manufactured by FUJIFILM Wako Pure Chemical Corporation) solution (final concentration 10 μM, 400 μM and 5 mM, respectively), and 2 μL of kinase solution at 2.5-fold concentration (final concentration of LATS1 or LATS2 5 μg/mL), each prepared with assay buffer (20 mM HEPES, 0.01% Triton X-100, 2 mM DTT, 50 μg/mL BSA, pH 7.5), were mixed in the wells of a polypropylene 384-well plate (manufactured by Greiner Bio-One, #784900) and reacted at room temperature for 5 hr. To the solution was added 5 μL detection solution [Fluorospark (registered trade mark) Kinase/ADP Multi-Assay Kit; manufactured by FUJIFILM Wako Pure Chemical Corporation], and the mixture was reacted at room temperature for 30 min. Successively, 5 μL of a reaction quenching liquid [Fluorospark (registered trade mark) Kinase/ADP Multi-Assay Kit; manufactured by FUJIFILM Wako Pure Chemical Corporation] was added to discontinue the reaction. Thereafter, the ADP concentration of the reaction solution was quantified by EnSpire (manufactured by PerkinElmer) to detect the kinase reaction.

LATS1 = target: T2, LATS1 (Homo sapiens, UniProt O95835); assay: Kinase inhibitory activity against LATS1 (ADP quantification); format: biochemical; conditions: ATP 400 μM, read-out: kinase inhibitory rate; for inhibition at 0.1 µM: final concentration 100 nM; for inhibition at 1 µM: final concentration 1000 nM
T2 construct: purchased Carna Biosciences
T2 sequence (O95835 1-1130): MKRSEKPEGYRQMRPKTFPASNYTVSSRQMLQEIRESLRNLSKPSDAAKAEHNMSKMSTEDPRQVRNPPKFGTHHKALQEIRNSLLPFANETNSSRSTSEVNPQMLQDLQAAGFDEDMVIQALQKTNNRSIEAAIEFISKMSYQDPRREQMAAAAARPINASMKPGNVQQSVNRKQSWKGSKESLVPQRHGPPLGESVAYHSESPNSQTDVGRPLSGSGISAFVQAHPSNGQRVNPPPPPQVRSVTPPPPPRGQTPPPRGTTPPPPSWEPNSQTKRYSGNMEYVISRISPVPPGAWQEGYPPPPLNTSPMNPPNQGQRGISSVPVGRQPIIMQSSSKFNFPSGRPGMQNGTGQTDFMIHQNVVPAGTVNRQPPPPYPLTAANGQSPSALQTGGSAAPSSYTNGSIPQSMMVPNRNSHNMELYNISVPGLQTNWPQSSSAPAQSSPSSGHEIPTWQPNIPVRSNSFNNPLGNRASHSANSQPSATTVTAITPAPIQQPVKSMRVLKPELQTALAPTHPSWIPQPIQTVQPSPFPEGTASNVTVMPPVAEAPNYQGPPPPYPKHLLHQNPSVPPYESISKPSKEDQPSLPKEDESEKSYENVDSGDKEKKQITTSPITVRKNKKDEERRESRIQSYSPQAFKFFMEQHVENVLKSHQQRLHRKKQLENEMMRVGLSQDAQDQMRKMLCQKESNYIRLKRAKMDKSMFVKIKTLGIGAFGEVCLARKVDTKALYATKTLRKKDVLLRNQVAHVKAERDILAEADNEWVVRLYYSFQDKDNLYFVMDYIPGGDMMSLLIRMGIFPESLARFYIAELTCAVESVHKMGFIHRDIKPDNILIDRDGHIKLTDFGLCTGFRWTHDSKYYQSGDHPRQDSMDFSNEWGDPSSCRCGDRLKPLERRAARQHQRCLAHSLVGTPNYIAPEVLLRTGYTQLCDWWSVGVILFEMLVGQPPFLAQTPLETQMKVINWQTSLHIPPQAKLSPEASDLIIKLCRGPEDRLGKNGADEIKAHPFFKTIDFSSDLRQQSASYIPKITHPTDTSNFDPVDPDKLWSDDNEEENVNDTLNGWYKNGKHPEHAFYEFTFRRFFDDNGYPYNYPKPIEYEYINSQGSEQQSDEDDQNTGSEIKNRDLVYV
Procedure: as §1, §2, §3

inhibition at 1 µM (LATS2) | inhibition at 0.1 µM (LATS1) | inhibition at 1 µM (LATS1) | inhibition at 0.1 µM (LATS2) | Compound | phosphorylated YAP amount (%) (YAP; 2D culture conditions) | total YAP amount (%) (YAP; 2D culture conditions) | phosphorylated YAP amount (%) (YAP; 3D culture conditions) | total YAP amount (%) (YAP; 3D culture conditions)
– | – | – | – | CC/C(=N\NC(=O)CNc1cccnc1)c1ccc(O)c(C)c1O [A-002] | 50% | 85% | 78% | 100%
– | – | – | – | CC/C(=N\NC(=O)[C@@H](C)Nc1ccc(F)nc1)c1ccc(O)c(C)c1O [A-010] | 11% | 94% | 20% | 114%
≥ 40% | ≥ 40% | ≥ 40% | – | CC/C(=N\NC(=O)[C@@H](C)Nc1ccc2cccnc2c1)c1ccc(O)c(C)c1O [A-019, (R,E)-N′-[1-(2,4-dihydroxy-3-methylphenyl)propylidene]-2-(quinolin-7-ylamino)propanehydrazide] | – | – | – | –
≥ 40% | – | ≥ 40% | – | CC/C(=N\NC(=O)C(C)Oc1cccnc1)c1ccc(O)c(C)c1O (centres unmarked) [C-001, (E)-N′-(1-(2,4-dihydroxy-3-methylphenyl)propylidene)-2-(pyridin-3-yloxy)propanehydrazide] | – | – | – | –
– | – | – | – | CC/C(=N\NC(=O)[C@@H](C)Nc1cncc(C(F)(F)F)c1)c1ccc(O)c(C)c1O [A-013] | 42% | 91% | 49% | 96%
≥ 40% | ≥ 40% | ≥ 40% | ≥ 40% | CC/C(=N\NC(=O)CNc1ccccn1)c1ccc(O)c(C)c1O [A-001, (E)-N′-(1-(2,4-dihydroxy-3-methylphenyl)propylidene)-2-(pyridin-2-ylamino)acetohydrazide] | – | – | – | –
– | – | – | – | CC/C(=N\NC(=O)C(CC)Nc1cccnc1)c1ccc(O)c(C)c1O (centres unmarked) [A-005] | 27% | 94% | 30% | 102%
– | – | – | – | CC/C(=N\NC(=O)[C@@H](C)Nc1cncc(F)c1)c1ccc(O)c(C)c1O [A-007R] | 8% | 98% | 15% | 108%
– | – | – | – | CC/C(=N\NC(=O)[C@@H](C)Nc1ccc(Cl)nc1)c1ccc(O)c(C)c1O [A-012] | 19% | 87% | 23% | 103%
≥ 40% | ≥ 40% | ≥ 40% | ≥ 40% | CC/C(=N\NC(=O)[C@@H](C)Nc1cncnc1)c1ccc(O)c(C)c1O [A-017, (R,E)-N′-[1-(2,4-dihydroxy-3-methylphenyl)propylidene]-2-(pyrimidin-5-ylamino)propanehydrazide] | – | – | – | –
– | – | – | – | CC/C(=N\NC(=O)[C@@H](C)Nc1cncc(Cl)c1)c1ccc(O)c(C)c1O [A-011] | 46% | 91% | 55% | 98%

Source: US20220144775A1, “HYDRAZIDE COMPOUND AND KINASE INHIBITOR” (NISSAN CHEMICAL CORPORATION, priority 2019, published 2022)
